The text below walks through data of patent publication US9145392B2, “Imidazole amines as modulators of kinase activity” (Merck Patent GmbH, priority 2011, dated 2015).

In one assay the target is P70S6K (T412E mutant) (Homo sapiens (Human), UniProt P23443, T412E). Description: P70S6K enzyme assay. The note with it: read-out: IC50 p70S6K. In kind it is biochemical. The method, then: P70S6K inhibitor compounds are diluted and plated in 96 well plates. […] The reaction is incubated for 90 min at 25° C., before the addition of 10 mM EDTA to stop the reaction. The proportion of substrate and product (phosphorylated) peptide is analysed on a Caliper Life Sciences Lab Chip 3000, using a pressure of −1.4 psi, and upstream and downstream voltages of −3000 and −700 respectively. Product peaks are resolved before substrate peaks on the resulting chromatograms.

The target in the next assay is His-AKT (Full Length) (Homo sapiens (Human), UniProt P31749). Description: AKT enzyme assay. The conditions noted are these: read-out: IC50 AKT. The assay is classed as biochemical. As for the experimental part: A TTP Mosquito liquid handling instrument is used to place 125n1 of the appropriate concentration of inhibitor in 100% DMSO (for a dose response curve calculation) into each well of a 384-well plate.
The reaction is incubated for 90 min at 25 C, and then stopped by the addition of 70 μl of Stop buffer (100 mM HEPES pH 7.5, 0.015% Brij-35, 10 mM EDTA (Sigma, E7889)).
The plate is read on a Caliper LC 3000 in an Off-Chip mobility shift assay format, using the following parameters for a 12-sipper chip: screening pressure −2.3 psi, upstream voltage −500, and downstream voltage −3000. These conditions cause unphosphorylated substrate and phosphorylated product peptide to resolve as separate peaks allowing direct measurement of percentage of conversion of substrate to product. The percent conversion can be plotted against concentration of inhibitor to produce a sigmoidal dose response curve, from which an IC50 can be calculated.

Each structure is given as a SMILES string. Bounds are passed on as bounds.

Chain of His-AKT (Full Length) (P31749 whole entry): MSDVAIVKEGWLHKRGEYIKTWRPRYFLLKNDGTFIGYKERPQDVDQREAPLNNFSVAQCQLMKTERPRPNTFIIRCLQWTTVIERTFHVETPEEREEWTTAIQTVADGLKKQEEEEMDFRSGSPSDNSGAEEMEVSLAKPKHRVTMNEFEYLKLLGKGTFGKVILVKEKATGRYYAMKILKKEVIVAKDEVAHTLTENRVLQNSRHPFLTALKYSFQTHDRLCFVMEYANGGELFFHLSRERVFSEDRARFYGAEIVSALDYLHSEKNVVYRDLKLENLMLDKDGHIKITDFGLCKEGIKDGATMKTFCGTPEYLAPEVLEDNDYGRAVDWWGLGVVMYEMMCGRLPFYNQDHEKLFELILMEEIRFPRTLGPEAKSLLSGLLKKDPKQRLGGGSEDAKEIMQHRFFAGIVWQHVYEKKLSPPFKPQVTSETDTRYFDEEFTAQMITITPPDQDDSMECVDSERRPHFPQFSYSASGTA
Chain of P70S6K (T412E mutant) (P23443 whole entry T412E): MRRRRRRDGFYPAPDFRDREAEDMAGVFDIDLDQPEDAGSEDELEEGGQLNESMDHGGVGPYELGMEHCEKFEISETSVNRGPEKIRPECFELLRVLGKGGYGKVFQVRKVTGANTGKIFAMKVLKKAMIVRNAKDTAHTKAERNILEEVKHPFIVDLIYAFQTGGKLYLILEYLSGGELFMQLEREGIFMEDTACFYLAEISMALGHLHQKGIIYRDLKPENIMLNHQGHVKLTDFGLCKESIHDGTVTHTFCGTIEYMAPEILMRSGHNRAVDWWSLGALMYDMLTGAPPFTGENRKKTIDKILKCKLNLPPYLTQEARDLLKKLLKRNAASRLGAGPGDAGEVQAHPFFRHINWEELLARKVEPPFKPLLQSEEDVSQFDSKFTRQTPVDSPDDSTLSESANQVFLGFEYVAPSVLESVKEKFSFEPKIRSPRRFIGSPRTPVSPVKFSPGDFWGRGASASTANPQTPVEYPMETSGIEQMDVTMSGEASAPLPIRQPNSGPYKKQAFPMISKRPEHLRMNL

A word on the IC50: it is the concentration that inhibits the measured activity by half. For the compound `CS(=O)(=O)c1cccc(-c2cn(CCN3CCC3)c(C3CCN(c4ncnc(N)c4C#N)CC3)n2)c1` [Compound 355, 4-Amino-6-{4-[1-(2-azetidin-1-yl-ethyl)-4-(3-methanesulfonyl-phenyl)-1H-imidazol-2-yl]-piperidin-1-yl}-pyrimidine-5-carbonitrile], the half-maximal inhibitory concentration (IC50) on P70S6K (T412E mutant) is 17 nM; on His-AKT (Full Length) it was 80 nM.

Take `N#Cc1c(N)ncnc1N1CCC(c2nc(-c3ccc(F)c(C(F)(F)F)c3)cn2CCN2CCC2)CC1` [Compound 74, 4-Amino-6-{4-[1-(2-azetidin-1-yl-ethyl)-4-(4-fluoro-3-trifluoromethyl-phenyl)-1H-imidazol-2-yl]-piperidin-1-yl}-pyrimidine-5-carbonitrile]: the IC50 stood at 1.2 nM at P70S6K (T412E mutant) and 2.6 nM on His-AKT (Full Length).

For `CCc1c(N)ncnc1N1CCC(c2nc(-c3ccc(Cl)c(F)c3)cn2CCN2CCCC2)CC1` [Compound 251], the 50% inhibitory concentration (IC50) at P70S6K (T412E mutant) amounted to 2.6 nM; at His-AKT (Full Length) it was 76 nM.

With `FC(F)(F)c1cccc(-c2c[nH]c(C3CCN(c4ncncc4Br)CC3)n2)c1` [Compound 4, 5-Bromo-4-{4-[4-(3-trifluoromethyl-phenyl)-1H-imidazol-2-yl]-piperidin-1-yl}-pyrimidine], the IC50 at P70S6K (T412E mutant) amounted to 31.9 nM; at His-AKT (Full Length), 6100 nM.

With `CNCCn1cc(-c2ccnc(C(F)(F)F)c2)nc1C1CCN(c2cc(N)ncn2)CC1` [Compound 167, 6-(4-(1-(2-(methylamino)ethyl)-4-(2-(trifluoromethyl)pyridin-4-yl)-1H-imidazol-2-yl)piperidin-1-yl)pyrimidin-4-amine], the half-inhibitory concentration (IC50) on P70S6K (T412E mutant) is 130 nM; at His-AKT (Full Length), more than 1000 nM.

With `Cc1cc(-c2cn(CCN3CCC3)c(C3CCN(c4ncnc(N)c4C(N)=O)CC3)n2)ccc1F` [Compound 124, 4-amino-6-(4-(1-(2-(azetidin-1-yl)ethyl)-4-(4-fluoro-3-methylphenyl)-1H-imidazol-2-yl)piperidin-1-yl)pyrimidine-5-carboxamide], the IC50 at P70S6K (T412E mutant) was determined as 2 nM; at His-AKT (Full Length) it was 14 nM.

Regarding `Nc1ncnc(N2CCC(c3nc(-c4ccc(F)cc4)cn3CCN3CCCC3)CC2)c1Br` [Compound 227], the values for the 50% inhibitory concentration (IC50) on P70S6K (T412E mutant) and on His-AKT (Full Length) were 1.4 nM and 2.9 nM, respectively.

For the compound `CN(C)CCn1cc(-c2ccc(F)c(C(F)(F)F)c2)nc1C1CCN(c2ncnc(N)c2-c2ccc(C(=O)O)cc2)CC1` [Compound 89], the IC50 came to 7.3 nM on P70S6K (T412E mutant) and 33 nM on His-AKT (Full Length).

Turning to `COC(=O)c1ccc(-c2c(N)ncnc2N2CCC(c3nc(-c4ccc(F)c(C(F)(F)F)c4)cn3CCN3CCC3)CC2)cc1` [Compound 222], the IC50 at P70S6K (T412E mutant) worked out at 11 nM; on His-AKT (Full Length) it was 43 nM.

On to `C=Cc1c(N)ncnc1N1CCC(c2nc(-c3ccc(F)c(F)c3)cn2CCN2CCCC2)CC1` [Compound 242], for which the IC50 on P70S6K (T412E mutant) worked out at 1.4 nM; at His-AKT (Full Length) it was 9.7 nM.

Consider `NC(=O)c1c(N)ncnc1N1CCC(c2nc(-c3ccc(F)c(C(F)(F)F)c3)cn2C2CNC2)CC1` [Compound 143, 4-amino-6-(4-(1-(azetidin-3-yl)-4-(4-fluoro-3-(trifluoromethyl)phenyl)-1H-imidazol-2-yl)piperidin-1-yl)pyrimidine-5-carboxamide], for which the IC50 on P70S6K (T412E mutant) is 16 nM; on His-AKT (Full Length) it was 670 nM.

On to `NC(=O)c1c(N)ncnc1N1CCC(c2nc(-c3ccoc3)cn2CCN2CCC2)CC1` [Compound 133, 4-amino-6-(4-(1-(2-(azetidin-1-yl)ethyl)-4-(furan-3-yl)-1H-imidazol-2-yl)piperidin-1-yl)pyrimidine-5-carboxamide], for which the concentration for half-maximal inhibition (IC50) came to 46 nM on P70S6K (T412E mutant) and 3600 nM on His-AKT (Full Length).

For `CCc1c(N)ncnc1N1CCC(c2nc(-c3ccnc(Cl)c3)cn2CCN2CCC2)CC1` [Compound 104, 6-(4-(1-(2-(azetidin-1-yl)ethyl)-4-(2-chloropyridin-4-yl)-1H-imidazol-2-yl)piperidin-1-yl)-5-ethylpyrimidin-4-amine], the IC50 on P70S6K (T412E mutant) amounted to 3.1 nM; at His-AKT (Full Length) it was 16.5 nM.

As for `N#Cc1c(N)ncnc1N1CCC(c2nc(-c3ccc(F)c(C(F)(F)F)c3)cn2C[C@@H]2CCN2)CC1` [Compound 146, (S)-4-amino-6-(4-(1-(azetidin-2-ylmethyl)-4-(4-fluoro-3-(trifluoromethyl)phenyl)-1H-imidazol-2-yl)piperidin-1-yl)pyrimidine-5-carbonitrile], the values for the IC50 at P70S6K (T412E mutant) and at His-AKT (Full Length) were 3.8 nM and 31 nM, respectively.

Regarding `NC(=O)c1c(N)ncnc1N1CCC(c2nc(-c3ccc(F)c(Cl)c3)cn2CCN2CCCC2)CC1` [Compound 330], the IC50 at P70S6K (T412E mutant) worked out at 3.6 nM; on His-AKT (Full Length), 14 nM.

Consider `C=Cc1c(N)ncnc1N1CCC(c2nc(-c3ccc(F)c(C(F)(F)F)c3)cn2CCN2CCCCC2)CC1` [Compound 65, 6-{4-[4-(4-Fluoro-3-trifluoromethyl-phenyl)-1-(2-piperidin-1-yl-ethyl)-1H-imidazol-2-yl]-piperidin-1-yl}-5-vinyl-pyrimidin-4-ylamine], for which the half-inhibitory concentration (IC50) on P70S6K (T412E mutant) came to 5.5 nM; on His-AKT (Full Length) it was 12 nM.

For `C=Cc1c(N)ncnc1N1CCC(c2nc(-c3ccc(C(F)(F)F)cc3)cn2CCN2CCCC2)CC1` [Compound 269], the IC50 on P70S6K (T412E mutant) was 10 nM; on His-AKT (Full Length), 190 nM.

Consider `CN(CCn1cc(-c2ccc(F)c(C(F)(F)F)c2)nc1C1CCN(c2ncnc(N)c2C(N)=O)CC1)Cc1ccccc1` [Compound 368, 4-Amino-6-{4[1-[2-(benzyl-methyl-amino)-ethyl]-4-(4-fluoro-3-trifluoromethyl-phenyl)-1H-imidazol-2-yl]-piperidin-1-yl}-pyrimidine-5-carboxylic acid amide], for which the values for the 50% inhibitory concentration (IC50) at P70S6K (T412E mutant) and at His-AKT (Full Length) were 21 nM and 760 nM, respectively.

`CCc1c(N)ncnc1N1CCC(c2nc(-c3ccc(F)c(C(F)(F)F)c3)cn2CCN)CC1` [Compound 139, 6-(4-(1-(2-aminoethyl)-4-(4-fluoro-3-(trifluoromethyl)phenyl)-1H-imidazol-2-yl)piperidin-1-yl)-5-ethylpyrimidin-4-amine]: the IC50 came to 1.1 nM at P70S6K (T412E mutant) and 6.6 nM at His-AKT (Full Length).

Consider `CN(C)CCn1cc(-c2ccc(F)c(C(F)(F)F)c2)nc1C1CCN(c2ncnc(N)c2-c2cnc(N)nc2)CC1` [Compound 71, 6′-{4-[1-(2-Dimethylamino-ethyl)-4-(4-fluoro-3-trifluoromethyl-phenyl)-1H-imidazol-2-yl]-piperidin-1-yl}-[5,5′]bipyrimidinyl-2,4′-diamine], for which the IC50 on P70S6K (T412E mutant) was 5.6 nM; on His-AKT (Full Length), 450 nM.

For `Cc1cc(-c2cn(CC3CNC3)c(C3CCN(c4ncnc(N)c4OC(C)C)CC3)n2)ccc1F` [Compound 187, 6-(4-(1-(azetidin-3-ylmethyl)-4-(4-fluoro-3-methylphenyl)-1H-imidazol-2-yl)piperidin-1-yl)-5-isopropoxypyrimidin-4-amine], the results for the IC50 at P70S6K (T412E mutant) and on His-AKT (Full Length) were 3.4 nM and 6.4 nM, respectively.

As for `N#Cc1c(N)ncnc1N1CCC(c2nc(-c3ccc(F)c(C(F)(F)F)c3)cn2CCN2CCCC2)CC1` [Compound 305], the figures for the IC50 on P70S6K (T412E mutant) and at His-AKT (Full Length) were 1.9 nM and 3.2 nM, respectively.

`C=Cc1c(N)ncnc1N1CCC(c2nc(-c3ccnc(C(C)C)c3)cn2CCN2CCC2)CC1` [Compound 182, 6-(4-(1-(2-(azetidin-1-yl)ethyl)-4-(2-isopropylpyridin-4-yl)-1H-imidazol-2-yl)piperidin-1-yl)-5-vinylpyrimidin-4-amine]: the IC50 at P70S6K (T412E mutant) was determined as 0.7 nM; at His-AKT (Full Length), 2.2 nM.

For `CNCCn1cc(-c2ccnc(C(F)(F)F)c2)nc1C1CCN(c2ncnc(N)c2Br)CC1` [Compound 166, 5-bromo-6-(4-(1-(2-(methylamino)ethyl)-4-(2-(trifluoromethyl)pyridin-4-yl)-1H-imidazol-2-yl)piperidin-1-yl)pyrimidin-4-amine], the concentration for half-maximal inhibition (IC50) at P70S6K (T412E mutant) came to 1.3 nM; at His-AKT (Full Length) it was 1.5 nM.

On to `CCc1c(N)ncnc1N1CCC(c2nc(-c3ccc(C(F)(F)F)c(F)c3)cn2CCN2CCCC2)CC1` [Compound 234], for which the results for the IC50 at P70S6K (T412E mutant) and at His-AKT (Full Length) were 13 nM and 470 nM, respectively.

For the compound `N#Cc1c(N)ncnc1N1CCC(c2nc(-c3ccc(F)c(Cl)c3)cn2CCN2CCC2)CC1` [Compound 75, 4-Amino-6-{4-[1-(2-azetidin-1-yl-ethyl)-4-(3-chloro-4-fluoro-phenyl)-1H-imidazol-2-yl]-piperidin-1-yl}-pyrimidine-5-carbonitrile], the half-inhibitory concentration (IC50) at P70S6K (T412E mutant) stood at 1 nM; at His-AKT (Full Length), 1.9 nM.

On to `COc1ccc(-c2cn(CCN3CCC3)c(C3CCN(c4ncnc(N)c4C#N)CC3)n2)cc1Cl` [Compound 323], for which the IC50 at P70S6K (T412E mutant) came out at 8.3 nM; on His-AKT (Full Length), 31 nM.

Turning to `NC(=O)c1c(N)ncnc1N1CCC(c2nc(-c3cccc(Cl)c3)cn2CCN2CCCC2)CC1` [Compound 336], the IC50 on P70S6K (T412E mutant) amounted to 7.6 nM; at His-AKT (Full Length) it was 76 nM.

With `CC(C)N(C)CCn1cc(-c2ccc(F)c(C(F)(F)F)c2)nc1C1CCN(c2ncnc(N)c2C#N)CC1` [Compound 360, 4-Amino-6-(4-{4-(4-fluoro-3-trifluoromethyl-phenyl)-1-[2-(isopropyl-methyl-amino)-ethyl]-1H-imidazol-2-yl}-piperidin-1-yl)-pyrimidine-5-carbonitrile], the figures for the IC50 at P70S6K (T412E mutant) and at His-AKT (Full Length) were 2.2 nM and 2.7 nM, respectively.
